Laboratory results: patent US20030139361A1, “Drug for gene therapy” (priority 2000, published 2003)

System: spleen cells derived from PVG rat and mitomycin-treated DA rat
Assay: Lymphocyte mixed culture test (BrdU incorporation)
Type: cell-based
Conditions: 4 days culture, BrdU 10 μM for last 16 hours; FIG. 2
Description: To study the immunosuppressive activity of the human IDO protein prepared in Example 10, a lymphocyte mixed culture test was carried out. The spleen cells derived from a non-treated PVG rat and the spleen cells derived from a DA rat treated with 25 μg/ml of mitomycin (SIGMA-Aldrich Corporation) were seeded on a U bottom 96-well plate (NUNC Inc.) at 5×10^4/well and at 8×10^6/well, respectively. The IDO protein was then added and culturing was done for 4 days. Sixteen hours before the finish of culturing 5-bromo-2′deoxyuridine (BrdU) was added at a final concentration of 10 μM. The amount of BrdU incorporated into the intracellular DNA was quantified using a BrdU Labeling & Detection Kit III (Roche Diagnostics Inc.).

## human IDO protein: Recombinant human indoleamine 2,3-dioxygenase protein prepared in Example 10 from E. coli
  immunosuppressive activity (amount of BrdU incorporated into intracellular DNA): showed the immunosuppressive activity in a concentration-dependent manner
